Values after ≈ are worked out from the molar mass of the structure shown. Values belong to the compound of their own block, whether it stands above or below them.
Experiments:
Test in all cases: ≥ marks a high value that may be exact or a test limit, other limits are often not marked, values filed in µg/mL are converted to µM
[1] = system: Candida albicans ATCC 90028
[2] = system: Proteus mirabilis ATCC 25933
[3] = system: Klebsiella pneumoniae KK3 9904
[4] = system: Enterobacter cloacae NHTCC 53001
[5] = system: Staphylococcus epidermidis RP62A
[6] = system: Enterococcus faecalis ATCC 29212
[7] = system: Escherichia coli ATCC 25922
[8] = system: Pseudomonas aeruginosa ATCC 27853
[9] = system: Staphylococcus aureus NCTC 8325
[10] = system: Streptococcus sanguinis ATCC 10556
[11] = system: Streptococcus mutans UA159
[12] = system: Streptococcus sobrinus ATCC 6715
[13] = system: Candida albicans
[14] = system: Staphylococcus aureus ATCC 6538
[15] = system: Escherichia coli CCT 1371
[16] = system: Staphylococcus aureus ATCC 25923
[17] = system: Pseudomonas aeruginosa ATCC 15442
[18] = system: Staphylococcus epidermidis
[19] = system: Staphylococcus saprophyticus
[20] = system: Bacillus subtilis CCT 2471
[21] = system: Candida albicans NCTC 3179
[22] = system: Staphylococcus aureus C623
[23] = system: Enterococcus faecium t62764
[24] = system: Pseudomonas aeruginosa 198
[25] = system: Escherichia coli ESBL 64771
[26] = system: Pseudomonas aeruginosa 9
[27] = system: Klebsiella pneumoniae ESBL 63575
[28] = system: Enterococcus faecium mic80
[29] = system: Pseudomonas aeruginosa PAO1 H103
[30] = system: Escherichia coli ESBL 63103
[31] = system: Enterobacter cloacae 218R
[32] = system: Stenotrophomonas maltophilia ATCC 13637
[33] = system: Pseudomonas aeruginosa 213
[34] = system: Pseudomonas aeruginosa H1030
[35] = system: Klebsiella pneumoniae ESBL 61962
[36] = system: Pseudomonas aeruginosa LES400
[37] = system: Enterococcus faecalis f43559
[38] = system: Enterococcus faecalis W61950
[39] = system: Pseudomonas aeruginosa H1027

Structure (SMILES): NCCCC[C@H](NC(=O)[C@H](CCCCN)NC(=O)[C@H](Cc1ccccc1)NC(=O)[C@H](Cc1ccccc1)NC(=O)[C@H](CCCCN)NC(=O)[C@H](CCCCN)NC(=O)[C@H](Cc1ccccc1)NC(=O)[C@H](Cc1ccccc1)NC(=O)[C@H](CCCCN)NC(=O)[C@@H](N)Cc1ccccc1)C(=O)N[C@@H](Cc1c[nH]c2ccccc12)C(=O)O [FKFFKKFFKKW]
- MIC [10]: 20.2 µM (≈ 32 µg/mL)
- MIC [11]: 10.1 µM (≈ 16 µg/mL)
- MIC [12]: 10.1 µM (≈ 16 µg/mL)

Structure (SMILES): CC[C@H](C)[C@H](NC(=O)[C@H](CCCCN)NC(=O)[C@@H](NC(=O)[C@@H](NC(=O)[C@H](CC(N)=O)NC(=O)[C@H](CCC(=O)O)NC(=O)[C@H](CCC(=O)O)NC(=O)[C@H](CCC(N)=O)NC(=O)[C@@H](N)CCC(=O)O)C(C)C)C(C)C)C(=O)N[C@@H](CCC(N)=O)C(=O)N[C@@H](C)C(=O)N[C@@H](Cc1ccccc1)C(=O)N[C@@H](Cc1c[nH]c2ccccc12)C(=O)N[C@@H](CCCCN)C(=O)NCC(=O)N[C@@H](Cc1ccc(O)cc1)C(=O)N[C@@H](CCCCN)C(=O)N[C@@H](CCC(N)=O)C(=O)N[C@@H](CCCN=C(N)N)C(=O)N[C@@H](CCCCN)C(=O)N[C@@H](CCC(=O)O)C(=O)N[C@@H](Cc1ccc(O)cc1)C(=O)N[C@@H](CCSC)C(=O)O [EQEENVVKIQAFWKGYKQRKEYM]
- MIC [21]: 28.3 µM (≈ 83 µg/mL)
- MIC [16]: 32.1 µM (≈ 94 µg/mL)
- MIC [7]: 2.15 µM (≈ 6.3 µg/mL)

Structure (SMILES): CC[C@H](C)[C@H](N)C(=O)N[C@@H](Cc1c[nH]c2ccccc12)C(=O)N[C@@H](Cc1c[nH]c2ccccc12)C(=O)N[C@@H](CCCCN)C(=O)N[C@@H](Cc1c[nH]c2ccccc12)C(=O)N[C@@H](CCCN=C(N)N)C(=O)N[C@@H](CCCN=C(N)N)C(=O)N[C@@H](Cc1c[nH]c2ccccc12)C(=O)N[C@H](C(=O)O)C(C)C [IWWKWRRWV]
- MIC [22]: 1.48 µM (≈ 2.1 µg/mL)
- MIC [23]: 1.48 µM (≈ 2.1 µg/mL)
- MIC [24]: 6 µM (≈ 8.5 µg/mL)
- MIC [25]: 2.97 µM (≈ 4.2 µg/mL)
- MIC [26]: 24 µM (≈ 34 µg/mL)
- MIC [27]: 6 µM (≈ 8.5 µg/mL)
- MIC [16]: 1.48 µM (≈ 2.1 µg/mL)
- MIC [28]: 2.97 µM (≈ 4.2 µg/mL)
- MIC [29]: 2.97 µM (≈ 4.2 µg/mL)
- MIC [30]: 12 µM (≈ 17 µg/mL)
- MIC [6]: 12 µM (≈ 17 µg/mL)
- MIC [31]: 2.97 µM (≈ 4.2 µg/mL)
- MIC [32]: 0.777 µM (≈ 1.1 µg/mL)
- MIC [33]: 24 µM (≈ 34 µg/mL)
- MIC [34]: 24 µM (≈ 34 µg/mL)
- MIC [35]: ≥ 48 µM
- MIC [36]: 6 µM (≈ 8.5 µg/mL)
- MIC [37]: 24 µM (≈ 34 µg/mL)
- MIC [38]: 24 µM (≈ 34 µg/mL)
- MIC [39]: 2.97 µM (≈ 4.2 µg/mL)

The next lines start with the values.

- MIC [1]: ≥ 100 µM
- MIC [2]: ≥ 100 µM
- MIC [3]: 13 µM (≈ 33.7 µg/mL)
- MIC [4]: 6 µM (≈ 15.5 µg/mL)
- MIC [5]: 13 µM (≈ 33.7 µg/mL)
- MIC [6]: > 100 µM
- MIC [7]: 6 µM (≈ 15.5 µg/mL)
- MIC [8]: 13 µM (≈ 33.7 µg/mL)
- MIC [9]: ≥ 50 µM
Structure (SMILES): CC[C@H](C)[C@H](NC(=O)CN)C(=O)N[C@@H](CCCCN)C(=O)N[C@@H](CC(=O)O)C(=O)N[C@@H](Cc1c[nH]c2ccccc12)C(=O)N[C@H](C(=O)N[C@@H](CCCCN)C(=O)NCC(=O)N[C@@H](C)C(=O)N[C@@H](C)C(=O)N[C@@H](CCCCN)C(=O)N[C@@H](CCCCN)C(=O)N[C@@H](CC(C)C)C(=O)N[C@H](C(=O)N[C@@H](CCCCN)C(=O)N[C@H](C(=O)N[C@H](C(=O)N[C@@H](C)C(=O)N[C@@H](CO)C(=O)N[C@@H](Cc1cnc[nH]1)C(=O)N[C@H](C(=O)N[C@@H](C)C(=O)N[C@@H](CC(N)=O)C(=O)N[C@@H](CCC(N)=O)C(=O)O)[C@@H](C)CC)C(C)C)[C@@H](C)O)[C@@H](C)CC)[C@@H](C)CC [GIKDWIKGAAKKLIKTVASHIANQ]

- MIC [1]: ≥ 100 µM
- MIC [2]: ≥ 100 µM
- MIC [3]: 25 µM (≈ 50.5 µg/mL)
- MIC [4]: 13 µM (≈ 26.3 µg/mL)
- MIC [5]: 25 µM (≈ 50.5 µg/mL)
- MIC [6]: > 100 µM
- MIC [7]: 6 µM (≈ 12.1 µg/mL)
- MIC [8]: 50 µM (≈ 101 µg/mL)
- MIC [9]: ≥ 50 µM
Structure (SMILES): CC(C)C[C@H](NC(=O)[C@H](C)NC(=O)[C@H](CCCCN)NC(=O)[C@H](C)NC(=O)[C@H](C)NC(=O)CNC(=O)[C@H](CCCCN)NC(=O)[C@H](CC(C)C)NC(=O)[C@H](CC(C)C)NC(=O)[C@H](CC(=O)O)NC(=O)[C@H](CCCCN)NC(=O)[C@H](Cc1ccccc1)NC(=O)CN)C(=O)N[C@H](C(=O)N[C@@H](CCCCN)C(=O)N[C@H](C(=O)N[C@H](C(=O)N[C@@H](CC(C)C)C(=O)N[C@@H](Cc1ccccc1)C(=O)O)C(C)C)[C@@H](C)O)C(C)C [GFKDLLKGAAKALVKTVLF]

- MIC [13]: > 84.5 µM
- MIC [14]: > 84.5 µM
- MIC [15]: ≥ 84.5 µM
- MIC [16]: > 84.5 µM
- MIC [17]: ≥ 84.5 µM
- MIC [18]: ≥ 84.5 µM
- MIC [7]: > 84.5 µM
- MIC [19]: ≥ 84.5 µM
- MIC [20]: ≥ 84.5 µM
Structure (SMILES): CC[C@H](C)[C@H](NC(=O)CNC(=O)[C@H](CCCCN)NC(=O)[C@H](C)NC(=O)[C@@H](NC(=O)[C@H](CCCCN)NC(=O)[C@@H](N)CC(C)C)[C@@H](C)CC)C(=O)N[C@H](C(=O)N[C@@H](CCCCN)C(=O)N[C@@H](CO)C(=O)N[C@@H](CC(C)C)C(=O)O)[C@@H](C)CC [LKIAKGIIKSL]

- MIC [22]: 12 µM (≈ 17 µg/mL)
- MIC [23]: 1.48 µM (≈ 2.1 µg/mL)
- MIC [24]: ≥ 47.1 µM
- MIC [25]: 12 µM (≈ 17 µg/mL)
- MIC [26]: ≥ 95 µM
- MIC [27]: ≥ 95 µM
- MIC [16]: 12 µM (≈ 17 µg/mL)
- MIC [28]: 5.91 µM (≈ 8.4 µg/mL)
- MIC [29]: 23.9 µM (≈ 34 µg/mL)
- MIC [30]: 12 µM (≈ 17 µg/mL)
- MIC [6]: 5.91 µM (≈ 8.4 µg/mL)
- MIC [31]: 12 µM (≈ 17 µg/mL)
- MIC [32]: 1.48 µM (≈ 2.1 µg/mL)
- MIC [33]: ≥ 95 µM
- MIC [34]: ≥ 47.1 µM
- MIC [35]: ≥ 95 µM
- MIC [36]: ≥ 47.1 µM
- MIC [37]: 23.9 µM (≈ 34 µg/mL)
- MIC [38]: 23.9 µM (≈ 34 µg/mL)
- MIC [39]: 5.91 µM (≈ 8.4 µg/mL)
Structure (SMILES): CC[C@H](C)[C@H](NC(=O)[C@H](CCCN=C(N)N)NC(=O)[C@H](C)NC(=O)[C@H](CC(C)C)NC(=O)[C@@H](N)CCCN=C(N)N)C(=O)N[C@H](C(=O)N[C@H](C(=O)N[C@H](C(=O)N[C@@H](CCCN=C(N)N)C(=O)N[C@H](C(=O)N[C@@H](C)C(=O)N[C@@H](CCCN=C(N)N)C(=O)O)C(C)C)[C@@H](C)CC)C(C)C)C(C)C [RLARIVVIRVAR]
